Test results as given in patent publication US20250361210A1, “3,4-DIHYDROQUINOLIN-2(1H)-ONE COMPOUND” (Kissei Pharmaceutical Co., Ltd., priority 2022, published 2025).
pIC50: −log10 of the molar value.

Assays:
human TSHR = target: T1, human TSHR (Homo sapiens, UniProt P16473); assay: Antagonist activity using TSH-induced cAMP production in human TSHR-stably expressing CHO cells; type: cell-based; conditions: human TSH 50 ng/mL
T1 construct: expressed in transfected cells
Method: Measurement of Antagonist Activity Using TSH-Induced cAMP Production in Human TSHR-Stably Expressing CHO Cells as an Indicator
The human TSHR gene sequence (reference number NM_000369.2) was inserted into the multicloning site of pcDNA3.1(+). The constructed plasmid vector was introduced into CHO cells using the lipofection method to establish human TSHR-stably expressing CHO cells. The obtained cells were seeded at 5×10^4 cells/well in a 96-well poly-D-lysine-coated plate, and cultured in an F12 culture medium containing 10% FBS, 400 μg/mL of G418, 50 U/mL of penicillin and 50 μg/mL of streptomycin under conditions of 37° C. and 5% CO2 for 1 day. After the culture medium was removed, the cells were washed twice with 100 μL of an assay buffer solution (Hanks' Balanced Salt Solution containing 20 mM HEPES and 1 mM IBMX) per well. 30 μL of a test compound-containing assay buffer solution was added to the well and incubated at room temperature for 15 minutes. Then, 30 μL of an assay buffer solution containing human TSH (final concentration 50 ng/mL, R&D Systems, Inc.) was added, and incubated at 37° C. for 1 hour. The supernatant was removed, a Lysis and Detection Buffer 2 (Cisbio) was added, and the mixture was incubated at room temperature for 1 hour to prepare a cell lysate. According to the instruction manual of a cAMP Gs HiRange kit (Cisbio), the cell lysate, d2-labeled cAMP and anti-cAMP Europium Cryptate labeled antibodies (Cisbio) were reacted in a 384-well white microplate. Then, a fluorescence intensity ratio (measurement wavelength 665 nm/620 nm) was measured using a multi-plate reader (PHERAstar FSX, BMG LABTECH, Japan). The fluorescence intensity ratio of each sample was converted to a cAMP content using a standard curve. The cAMP content was converted as a percentage of the control value to calculate the cAMP production rate. The CAMP production rate was plotted against the test compound concentration using Prism (Graph Pad Software Inc.) to calculate the IC50 value. The IC50 of each test compound is shown in the above tables. In the tables, IC50<0.5 μM: A, 0.5 μM≤IC50<3.0 μM: B, 3.0 μM≤IC50<30 μM: C are shown.

TSHR = target: T2, TSHR (Mus musculus, UniProt P47750); conditions: mice in which TRH has been administered and mice in which thyroid stimulating antibodies M22 has been administered; cited from earlier work
T2 construct: host or cells: mice (in vivo)
T2 sequence (P47750 22-764): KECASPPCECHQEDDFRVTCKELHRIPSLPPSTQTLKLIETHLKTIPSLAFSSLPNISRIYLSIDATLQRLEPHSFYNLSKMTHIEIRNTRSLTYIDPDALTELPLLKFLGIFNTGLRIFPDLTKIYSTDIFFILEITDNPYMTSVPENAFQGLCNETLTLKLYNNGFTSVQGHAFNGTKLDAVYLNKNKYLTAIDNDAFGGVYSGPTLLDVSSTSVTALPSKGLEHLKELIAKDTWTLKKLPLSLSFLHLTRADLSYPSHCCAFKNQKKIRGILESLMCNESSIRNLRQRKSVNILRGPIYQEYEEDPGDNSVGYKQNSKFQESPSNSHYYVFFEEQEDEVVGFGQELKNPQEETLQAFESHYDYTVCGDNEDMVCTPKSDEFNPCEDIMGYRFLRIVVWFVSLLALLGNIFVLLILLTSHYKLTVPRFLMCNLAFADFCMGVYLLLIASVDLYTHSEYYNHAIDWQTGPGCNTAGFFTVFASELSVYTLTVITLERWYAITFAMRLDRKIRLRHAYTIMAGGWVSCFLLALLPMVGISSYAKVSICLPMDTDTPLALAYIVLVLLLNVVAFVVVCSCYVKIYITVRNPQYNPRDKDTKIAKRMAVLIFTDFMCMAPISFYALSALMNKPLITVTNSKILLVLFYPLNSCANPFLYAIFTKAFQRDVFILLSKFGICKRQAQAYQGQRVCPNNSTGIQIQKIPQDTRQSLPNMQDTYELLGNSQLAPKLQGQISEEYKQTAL

T1 sequence (P16473 21-764): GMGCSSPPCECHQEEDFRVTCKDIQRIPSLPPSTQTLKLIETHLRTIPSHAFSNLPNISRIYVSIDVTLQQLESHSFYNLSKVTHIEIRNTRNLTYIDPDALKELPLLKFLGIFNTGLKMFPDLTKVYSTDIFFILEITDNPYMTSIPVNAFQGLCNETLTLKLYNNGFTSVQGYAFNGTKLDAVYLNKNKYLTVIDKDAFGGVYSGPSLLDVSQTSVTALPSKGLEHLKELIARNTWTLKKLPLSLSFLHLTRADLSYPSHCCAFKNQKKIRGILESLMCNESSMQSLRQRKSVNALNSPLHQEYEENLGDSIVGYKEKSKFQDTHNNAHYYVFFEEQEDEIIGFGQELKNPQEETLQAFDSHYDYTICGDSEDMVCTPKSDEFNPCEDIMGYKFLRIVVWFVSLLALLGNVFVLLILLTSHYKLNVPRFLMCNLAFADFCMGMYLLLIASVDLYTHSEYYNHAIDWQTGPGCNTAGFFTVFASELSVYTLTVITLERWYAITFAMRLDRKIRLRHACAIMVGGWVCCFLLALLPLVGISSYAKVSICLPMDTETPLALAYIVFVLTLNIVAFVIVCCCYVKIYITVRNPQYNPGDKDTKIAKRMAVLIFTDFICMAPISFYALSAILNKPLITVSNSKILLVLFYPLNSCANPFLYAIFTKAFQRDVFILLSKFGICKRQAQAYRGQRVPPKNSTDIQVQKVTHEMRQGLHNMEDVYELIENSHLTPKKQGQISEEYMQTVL

| SMILES | pIC50 (human TSHR) | blood T4 concentration (TSHR) |
| --- | --- | --- |
| CC(c1ccccc1C(F)(F)F)c1cccc2c1N(C)C(=O)[C@H](NC(N)=O)C2 (stereo partly drawn) [Example 78, ((3R)-1-Methyl-2-oxo-8-(1-(2-(trifluoromethyl)phenyl)ethyl)-1,2,3,4-tetrahydroquinolin-3-yl)urea] | > 6.30 |  |
| CC(c1cc(F)ccc1Cl)c1cccc2c1N(C)C(=O)[C@H](NC(N)=O)C2 (stereo partly drawn) [Example 79] | > 6.30 |  |
| CNC(=O)N[C@@H]1Cc2ccc(C)c(Oc3cc(F)ccc3Cl)c2N(C)C1=O [Example 80, 1-((3R)-8-(2-chloro-5-fluorophenoxy)-1,7-dimethyl-2-oxo-1,2,3,4-tetrahydroquinolin-3-yl)-3-methylurea] | > 6.30 |  |
| CC(=O)N[C@@H]1Cc2ccc(C)c(Oc3cc(F)ccc3Cl)c2N(C)C1=O [Example 81, N-((3R)-8-(2-chloro-5-fluorophenoxy)-1,7-dimethyl-2-oxo-1,2,3,4-tetrahydroquinolin-3-yl)acetamide] | > 6.30 |  |
| Cc1ccc2c(c1Oc1cc(F)ccc1Cl)N(C)C(=O)[C@H](NC(=O)C1CC1)C2 [Example 82] | > 6.30 |  |
| COc1ccc(C2Nc3ccccc3C(=O)N2Cc2ccco2)cc1COc1c(C)cc(NC(C)=O)cc1C (stereo not drawn) [NCGC00242364] |  | blood T4 concentration lowering effect |

Further lines, with some results ahead:

| pIC50 (human TSHR) | SMILES | blood T4 concentration (TSHR) |
| --- | --- | --- |
| > 6.30 | Cc1ccc2c(c1Oc1cc(F)ccc1Cl)N(C)C(=O)[C@H](NC(=O)C(Cl)Cl)C2 [Example 83] |  |
| > 6.30 | CN1C(=O)[C@H](NC(=O)C2CC2)Cc2cccc(Oc3cc(F)ccc3Cl)c21 [Example 84] |  |
| > 6.30 | Cc1ccc2c(c1Oc1cc(F)ccc1Cl)N(C)C(=O)[C@H](NC(=O)CC(F)(F)F)C2 [Example 85, N-((3R)-8-(2-chloro-5-fluorophenoxy)-1,7-dimethyl-2-oxo-1,2,3,4-tetrahydroquinolin-3-yl)-3,3,3-trifluoropropanamide] |  |
